Experimental data reported in patent publication US20100081679A1, “DIAMINOPYRIMIDINES AS FUNGICIDES” (Bayer CropScience AG, priority 2007, published 2010).
Marks after values point to notes of the source that are not given here.

Assay: logP determination via retention times, calibrated with unbranched alkan-2-ones
Format: physicochemical
Conditions: for logP: linear gradient 10% to 95% acetonitrile
[1] = HPLC on reversed-phase C18, method *: 40° C., 0.1% aqueous formic acid and acetonitrile
[2] = method *: HPLC reversed-phase C18, 40° C., 0.1% aqueous formic acid and acetonitrile
[3] = method **: HPLC reversed-phase C 18, 43° C., 0.1% aqueous phosphoric acid and acetonitrile

Q: With `CN1CC(=O)N(c2ccc(Nc3ncc(Cl)c(NC4CC4)n3)cc2)C1=O` [Example 107] as the compound, how does the logP [1] read?
A: 1.29*

Q: Which logP [1] does the source give for `COCC(C)Nc1ccc(Nc2ncc(Cl)c(NC3CC3)n2)cc1` (centres unmarked) [Example 110] here?
A: 2.03*

Q: Which chromatographic logP (pH 2.3, read-out: logP (pH2.3)) does the source give for `Ic1cnc(Nc2ccccc2)nc1NC1CC1` [N^4-Cyclopropyl-5-iodo-N^2-phenylpyrimidine-2,4-diamine] here?
A: 1.82

Q: With `Clc1cccc(Nc2ncc(Cl)c(NC3CC3)n2)c1` [compound 1] as the compound, how does the logP [2] read?
A: 2.7*

Q: With `CC(C)(C)OC(=O)N1CCN(c2ccc(Nc3ncc(Cl)c(NC4CC4)n3)cc2)CC1` [compound 7] as the compound, how does the logP [2] read?
A: 2.4*

Q: Which logP [3] does the source give for `NS(=O)(=O)c1ccc(Nc2ncc(Cl)c(NCC3CC3)n2)cc1` [compound 8] here?
A: 1.52**

Q: With `Clc1cccc(Nc2ncc(Cl)c(NCC3CC3)n2)c1` [compound 9] as the compound, how does the logP [3] read?
A: 2.7**

Q: Which logP [3] does the source give for `COc1cc(Nc2ncc(Cl)c(NCC3CC3)n2)cc(OC)c1` [compound 11] here?
A: 2.09**

Q: For `CC(=O)c1cccc(Nc2ncc(Cl)c(NCC3CC3)n2)c1` [compound 13], which logP [3] is on record?
A: 1.87**

Q: Which logP [3] does the source give for `CN(C)S(=O)(=O)c1ccc(Nc2ncc(Cl)c(NCC3CC3)n2)cc1` [compound 14] here?
A: 2.36**

Q: For `NS(=O)(=O)c1cc(Nc2ncc(Cl)c(NC3CC3)n2)cc(C(F)(F)F)c1` [compound 17], which logP [3] is on record?
A: 2.48**

Q: With `CNS(=O)(=O)c1ccc(Nc2ncc(Cl)c(NCC3CC3)n2)cc1` [compound 20] as the compound, how does the logP [3] read?
A: 1.87**

Q: Which logP [3] does the source give for `CNS(=O)(=O)c1ccc(Nc2ncc(Cl)c(NC3CC3)n2)cc1` [compound 21] here?
A: 1.71**

Q: For `CCCCNS(=O)(=O)c1ccc(Nc2ncc(Cl)c(NCC3CC3)n2)cc1` [compound 23], which logP [3] is on record?
A: 2.75**

Q: For `NS(=O)(=O)c1ccc(Nc2ncc(Cl)c(NC3CC3)n2)cc1` [compound 25], which logP [3] is on record?
A: 1.37**

Q: Which logP [3] does the source give for `Cc1cc(C)nc(NS(=O)(=O)c2ccc(Nc3ncc(Cl)c(NC4CC4)n3)cc2)n1` [compound 26] here?
A: 1.72**

Q: Which logP [3] does the source give for `O=S(=O)(Nc1ccccc1)c1ccc(Nc2ncc(Cl)c(NC3CC3)n2)cc1` [compound 27] here?
A: 2.56**

Q: Which logP [3] does the source give for `C=CCNS(=O)(=O)c1ccc(Nc2ncc(Cl)c(NC3CC3)n2)cc1` [compound 31] here?
A: 2.09**

Q: For `COC(=O)c1ccc(Nc2ncc(Cl)c(NC3CC3)n2)cc1.Cl` [compound 36], which logP [3] is on record?
A: 2.25**

Q: With `CCOC1(Nc2nc(Nc3ccccc3)ncc2Cl)CC1.Cl` [compound 38] as the compound, how does the logP [3] read?
A: 2.23**

Q: For `CCOC1(Nc2nc(Nc3ccccc3)ncc2Cl)CC1` [compound 39], which logP [3] is on record?
A: 2.23**

Q: With `N#Cc1cnc(Nc2ccccc2)nc1NC1CC1` [compound 40] as the compound, how does the logP [2] read?
A: 2.44*

Q: Which logP [3] does the source give for `Cl.Fc1cnc(Nc2ccccc2)nc1NC1CC1` [compound 41] here?
A: 1.45**

Q: With `Fc1cnc(Nc2ccccc2)nc1NC1CC1` [compound 42] as the compound, how does the logP [3] read?
A: 1.45**

Q: For `CC(=O)c1ccc(Nc2ncc(Cl)c(NC3CC3)n2)cc1` [compound 44], which logP [2] is on record?
A: 1.99*

Q: With `NS(=O)(=O)c1ccc(Nc2ncc(F)c(NC3CC3)n2)cc1` [compound 46] as the compound, how does the logP [3] read?
A: 0.95**

Q: With `CN(C)S(=O)(=O)c1cccc(Nc2ncc(Cl)c(NCC3CC3)n2)c1` [compound 49] as the compound, how does the logP [3] read?
A: 2.18**

Q: For `COc1cc(Nc2ncc(C)c(NC3CC3)n2)cc(OC)c1OC` [compound 52], which logP [2] is on record?
A: 1.47*

Q: For `Cc1cnc(Nc2cccc(Cl)c2)nc1NC1CC1` [compound 57], which logP [2] is on record?
A: 1.8*

Q: For `N#CCS(=O)(=O)c1ccc(Nc2ncc(Cl)c(NC3CC3)n2)cc1` [compound 62], which logP [2] is on record?
A: 2.2*

Q: With `O=C1OCCN1c1ccc(Nc2ncc(Cl)c(NC3CC3)n2)cc1` [compound 83] as the compound, how does the logP [2] read?
A: 1.39*

Q: Which logP [2] does the source give for `O=S(=O)(c1ccc(Nc2ncc(Cl)c(NC3CC3)n2)cc1)N1CCOCC1` [compound 85] here?
A: 2.68*

Q: With `N#Cc1cnc(Nc2ccccc2)nc1NCC1CC1` [compound 87] as the compound, how does the logP [2] read?
A: 2.77*

Q: For `CC(C)(C)OC(=O)NCc1ccc(Nc2ncc(Cl)c(NC3CC3)n2)cc1` [compound 90], which logP [2] is on record?
A: 2.15*

Q: Which logP [2] does the source give for `COc1ccc(Nc2ncc(Cl)c(NC3CC3)n2)cn1` [compound 92] here?
A: 1.34*

Q: For `FC(F)Sc1ccc(Nc2ncc(Cl)c(NC3CC3)n2)cc1` [compound 94], which logP [2] is on record?
A: 2.77*

Q: For `Oc1ccc(Nc2ncc(Cl)c(NC3CC3)n2)cc1F` [compound 105], which logP [1] is on record?
A: 1.25*

Q: Which logP [1] does the source give for `CCCCC(=O)Oc1ccc(Nc2ncc(Cl)c(NC3CC3)n2)cc1` [compound 106] here?
A: 3.68*

Q: For `FC(F)C(F)(F)Oc1ccc(Nc2ncc(Cl)c(NC3CC3)n2)cc1` [compound 108], which logP [1] is on record?
A: 2.65*

Q: Which logP [1] does the source give for `CC(C)C1COC(=O)N1c1ccc(Nc2ncc(Cl)c(NC3CC3)n2)cc1` (centres unmarked) [compound 109] here?
A: 2.79*

Q: With `CC(C)C(=O)Nc1ccc(Nc2ncc(Cl)c(NC3CC3)n2)cc1` [compound 111] as the compound, how does the logP [1] read?
A: 1.43*

Q: For `Cc1cc(O)ccc1Nc1ncc(Br)c(NC2CC2)n1` [compound 112], which logP [1] is on record?
A: 1.21*

Q: With `CC(=O)Nc1cc(Nc2ncc(Br)c(NC3CC3)n2)ccc1C` [compound 113] as the compound, how does the logP [1] read?
A: 1.35*

Q: Which logP [1] does the source give for `Oc1ccc(Nc2ncc(Br)c(NC3CC3)n2)cc1` [compound 114] here?
A: 1.17*
